Data as given in PubChem BioAssay (NCI).
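The compound was tested at five concentrations on cells cultured in 96-well plates, with a 48-hour exposure period. GI50 is the concentration that inhibits growth by half. TGI: total growth inhibition.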

Columns and labels:
Assay in all cases: NCI-60 cell line screen, 48 h
NCI-H522 lung = tested on: NCI-H522 lung
SK-MEL-28 melanoma = tested on: SK-MEL-28 melanoma
EKVX NSCLC = tested on: EKVX NSCLC
U251 CNS = tested on: U251 CNS
HL-60(TB) leukemia = tested on: HL-60(TB) leukemia
HCT-116 colon = tested on: HCT-116 colon
SR leukemia = tested on: SR leukemia
UACC-257 melanoma = tested on: UACC-257 melanoma

Structure (SMILES)	GI50 (NCI-H522 lung) [µM]	TGI (NCI-H522 lung) [µM]	GI50 (SK-MEL-28 melanoma) [µM]	TGI (SK-MEL-28 melanoma) [µM]	GI50 (EKVX NSCLC) [µM]	TGI (EKVX NSCLC) [µM]	GI50 (U251 CNS) [µM]	TGI (U251 CNS) [µM]	GI50 (HL-60(TB) leukemia) [µM]	TGI (HL-60(TB) leukemia) [µM]	GI50 (HCT-116 colon) [µM]	TGI (HCT-116 colon) [µM]	GI50 (SR leukemia) [µM]	TGI (SR leukemia) [µM]	GI50 (UACC-257 melanoma) [µM]	TGI (UACC-257 melanoma) [µM]
CC/C=C\C/C=C\C[C@H](O)C/C=C1/C(=O)C=C[C@@H]1C/C=C\CCCC(=O)O	1.71	3.78	3.83	13.3	14.5	30.5	3.54	12.2	2.93	10.1	2.08	4.5	2.46	16.7	5.35	19.2
O=C(Nc1ccc(CN2CCOCC2)cc1)c1[nH]ncc1Nc1ncnc2sccc12	0.413	4.17	0.629	16.8	0.805	4.3	0.281	13.2	0.249	0.72	0.217	12.3	0.261	0.989	1.96	25.2
C=CC(C)(O)/C=C/C=C(\C)C(CC1OC1(C)C)OC(=O)/C(C)=C\C (configuration not stated)		> 100		> 100		> 100		> 100		> 100		> 100		> 100		> 100
COc1ccc2c(c1)C(=O)c1c-2c(Nc2ccc(C(C)=O)cc2)nc2ccccc12	30.3	> 100	52.2	> 100	25.2	> 100	13.5	40.6	> 100	> 100	4.17	19.2	55.7	> 100	91.1	> 100
C/C1=C/C2=CC(C)C[C@@H]2C(=O)[C@]2(C)C(=O)CC(C)(C)[C@H]2CC1=O (some centres not stated)		> 50				> 50		> 50		> 50		> 50				> 50
C=CC(C=O)C1(O)CCOC(=O)/C1=C\N (configuration not stated)	> 100	> 100	> 100	> 100	> 100	> 100	> 100	> 100			> 100	> 100	30.7	> 100	> 100	> 100
CC(C)(C#N)c1cc(F)cc(C(=O)Nc2cc(Nc3ncccc3-c3ncnc4nc[nH]c34)ccc2F)c1	2.66	> 10	0.0746	> 10	6.55	> 10	3.55	> 10	0.123	> 10	0.212	> 10	7.31	> 10		
CC(=O)O[C@H](C[C@H](C(C)C)N(C)C(=O)[C@@H](NC(=O)[C@H]1CCCCN1C)C(C)C)c1nc(C(=O)N[C@@H](Cc2ccccc2)C[C@H](C)C(=O)O)c(C(C)C)s1	< 0.00333	0.499			0.00336	> 33.3	< 0.00333	> 33.3	< 0.00333	< 0.00333	< 0.00333	0.773	< 0.00333	> 33.3	> 33.3	> 33.3
CC(=O)c1c(C)n(C)c2c1nnc1ccccc12		> 100		> 100		50.3		> 100				> 100				> 100
Cc1cccc(C(=O)/C=C/SC(=NC#N)SCc2ccccc2)c1	27.1	> 100	25.8	67	28	63.2	22.5	99.4			27.2	> 100	3.99	> 100	18.1	35.9
CN(C)CCNC(=O)Cn1cc([N+](=O)[O-])c(=O)c2ccccc21		> 100		> 100				> 100		> 100		> 100		> 100		> 100
CCOC(=O)C1=C(C)NC2SC(=O)/C(=C\c3ccccc3O)N2C1c1ccccc1 (configuration not stated)	26.2	76.3	20.5	56.8	34.1	> 100	21.5	49.6	19.6	54.4	23.6	63.6			42.4	> 100
Cc1ccc(Nc2n[nH]c(=S)s2)cc1				> 100		> 100		> 100		> 100		> 100		> 100		> 100
CCCC[N+](CCCC)=c1ccc2nc3c(C)cc(N(CC)CC)cc3sc-2c1			0.613	2.03					0.0995	0.773			0.0524	1.97		
O=C(CSC(c1ccccc1)c1ccccc1)N/N=C/c1cccc(Cl)c1	10.1	23.7			16.3	35.9	17.7	31.5	13.8	33.9	15.7	29.1	17.7	38.3	14.6	32.1
COc1ccc(C2=NN(C(=O)c3cc(OC)c(OC)c(OC)c3)C(c3ccc(Cl)cc3)C2)cc1OC (configuration not stated)	1.48	> 24.3	1.65	> 55.9	5.86	> 100	3.67	42.2			2.04	19.7	0.448	> 100	8.6	77.8
Cn1c(O)c(C(/C=C/c2ccccc2)=NCCN=C(/C=C/c2ccccc2)c2c(O)n(C)c(=O)n(C)c2=O)c(=O)n(C)c1=O	16.8	> 50	10.2	33.6	25.8	> 50	18.3	> 50	9.14	27.4	13.6	> 50			23.5	> 50
Cc1noc(C)c1-c1cc(O)cc(C(O)c2ccccc2)c1 (configuration not stated)	27	> 100	9.15	> 100			15	> 100	2.17	22.7	7.08	> 100	1.01	> 100	4.66	> 100
Cc1cc(C2=NNC(=O)Cc3cc4c(cc32)OCCO4)cc(C)c1N	1.24	6.19	5.37	> 100	29.7	> 100	3.22	> 100	1.59	54.5	2.35	> 100	0.31	> 100		
CN=C(NC#N)NCCSCc1nc[nH]c1C		> 100		> 100				> 100		> 100		> 100		> 100		> 100
C=CC[P+](c1ccccc1)(c1ccccc1)c1ccccc1	1.99	20.8	11.3	> 100			3.44	> 100	1.58	6.03	3.48	> 100	1.45	> 100	0.877	6.66
C/C(=C\C1=C(Cl)C(=O)c2ccccc2C1=O)C(=O)O	11.9	26.9	20.2	34.6	18.6	37.2	15.8	29.4	25.4	63.5	28.4	> 100	24.2	> 100		
O=[N+]([O-])c1ccc2c(N3CCC(CCCC4CCN(c5ncnc6cc([N+](=O)[O-])ccc56)CC4)CC3)ncnc2c1	> 45.9	> 100	> 44.7	> 100			> 42.2	> 100	17.8	> 100	0.514	97.6	2.5	> 100	1.55	> 100
COc1ccc2nc3cc(Cl)ccc3c(N3CCN(c4ccnc(N5CCOCC5)n4)CC3)c2c1	1.81	5.09	58.4	> 100			> 100	> 100	8.12	> 100	6.29	> 100	3.29	> 100	> 100	> 100
O=C(CCCN1CCOCC1)Nc1ccc(Cn2nnc3c2C(=O)c2nnn(Cc4ccc(NC(=O)CCCN5CCOCC5)cc4)c2C3=O)cc1	1.38	3.59	3.93	> 100			1.95	3.74	1.51	4.91	3	11.3	2.05	7.86	1.7	3.23
CCOc1cc2c(cc1O)/C(=N\O)C[C@@H]1[C@@H]2CC[C@]2(C)[C@@H](O)CC[C@@H]12			0.0143	> 53.5	0.0582	> 100	0.0324	> 100		< 0.0258						
